# Earlier results in PubChem BioAssay AID1259409 (Chemical Carcinogenesis Research Information System (CCRIS), 2018).
# Test system: rodent chemically induced tumor inhibition, incidence and multiplicity
# Assay: CCRIS tumor inhibitor studies
# Text: The CCRIS database contains chemical records with carcinogenicity, mutagenicity, tumor promotion, and tumor inhibition test results. It was developed by the National Cancer Institute (NCI). Data are derived from studies cited in primary journals, current awareness tools, NCI reports, and other sources. Test results have been reviewed by experts in carcinogenesis and mutagenesis.
# CCRIS provides historical information from the years 1985 - 2011. It is no longer updated.
# This is an archive assay for CCRIS tumor inhibitor studies.
smiles,measurement,setting,value
C=CCSC[C@H](N)C(=O)O,outcome,"Carcinogen: 7,12-DIMETHYLBENZ[A]ANTHRACENE (57-97-6), Dose [Inhibitor]: 0, 200 MG/KG ON ALTERNATE DAYS FOR 14 WK (STUDY DURATION: 14 WK), Route [Inhibitor]: ORAL, Species: HAMSTER, Strain/Sex: SYRIAN/MALE, Target Tissue: Type of Lesion: BUCCAL POUCH: SQUAMOUS CELL CARCINOMA, Dose [Carcinogen]: 0.5% IN LIQUID PARAFFIN TO RIGHT BUCCAL POUCH, ALTERNATE DAYS FOR 14 WK, Promoter: NONE USED","10, 0, 100%, not calculated"
same,"tumour outcome (control, treated, inhibition, significance)","Carcinogen: N-METHYL-N'-NITRO-N-NITROSOGUANIDINE [70-25-7], Dose [Inhibitor]: 200 MG/KG 3X/WK BEGINNING ON DAY 1 (STUDY DURATION: 21 WK), Route [Inhibitor]: GAVAGE, Species: RAT, Strain/Sex: WISTAR/MALE, Target Tissue: Type of Lesion: STOMACH: CARCINOMA, Dose [Carcinogen]: 200 MG/KG BW ONCE ON DAYS 0 AND 14, Promoter: SODIUM CHLORIDE [7647-14-5]","6/6 (100%), 0/6 (0%), 100%, not determined"
same,"tumour outcome (control, treated, inhibition, significance)","Carcinogen: N-METHYL-N-NITROSOUREA, 684-93-5, Dose [Inhibitor]: 0, 57 UMOL/KG DIET FOR 25 WK BEGINNING 2 WK PRIOR TO CARCINOGEN DOSE (STUDY DURATION: 25 WK), Route [Inhibitor]: ORAL, Species: RAT, Strain/Sex: SPRAGUE-DAWLEY/FEMALE, Target Tissue: Type of Lesion: MAMMARY GLAND: TUMOR, Dose [Carcinogen]: 15 MG/KG BW ONCE, Promoter: NONE USED","81%, 48%, 41%, p<0.05"
C/C1=C\C=C(\C(C)C)[C@@H](O)C/C(C)=C/CC/C(C)=C/CC1,"tumour outcome (control, treated, inhibition, significance)","Carcinogen: N-METHYL-N-NITROSOUREA, 684-93-5, Dose [Inhibitor]: 0.01% IN DIET BEGINNING 1 WK POST LAST CARCINOGEN DOSE (STUDY DURATION: 26 WK), Route [Inhibitor]: ORAL, Species: RAT, Strain/Sex: CD-FISCHER/FEMALE, Target Tissue: Type of Lesion: LARGE INTESTINE: TUMOR, Dose [Carcinogen]: 2 MG IN WATER 3/WK FOR 3 WK, Promoter: NONE USED","22/26 (85%), 15/26 (58%), 32%, p<0.01-p<0.05"
same,"tumour outcome (control, treated, inhibition, significance)","Carcinogen: N-METHYL-N-NITROSOUREA, 684-93-5, Dose [Inhibitor]: 0.01% IN DIET BEGINNING WEEK 1 AND CONTINUING FOR DURATION OF STUDY (STUDY DURATION: 26 WK), Route [Inhibitor]: ORAL, Species: RAT, Strain/Sex: CD-FISCHER/FEMALE, Target Tissue: Type of Lesion: LARGE INTESTINE: TUMOR, Dose [Carcinogen]: 2 MG IN WATER 3/WK FOR WEEKS 1-3, Promoter: NONE USED","22/26 (85%), 13/26 (50%), 41%, p<0.01-p<0.05"
same,"tumour outcome (control, treated, inhibition, significance)","Carcinogen: N-NITROSOBIS(2-HYDROXYPROPYL)AMINE, 53609-64-6, Dose [Inhibitor]: 0, 0.01% IN DIET FOR 27 WK (STUDY DURATION: 27 WK), Route [Inhibitor]: ORAL, Species: HAMSTER, Strain/Sex: SYRIAN/FEMALE, Target Tissue: Type of Lesion: PANCREAS: TUMOR, Dose [Carcinogen]: 500 MG/KG IN OLIVE OIL 1/WK FOR 27 WK, Promoter: NONE USED","11/22 (50%), 4/20 (20%), 60%, p<0.05"
O=CCc1c[nH]c2ccccc12,"tumour outcome (control, treated, inhibition, significance)","Carcinogen: 7,12-DIMETHYLBENZ[A]ANTHRACENE, 57-97-6, Dose [Inhibitor]: 0.1 MMOL IN 1 ML DIMETHYL SULFOXIDE ONCE 20 HR PRIOR TO CARCINOGEN ADMINISTRATION FOLLOWED BY A 14 WK OBSERVATION PERIOD, Route [Inhibitor]: GAVAGE, Species: RAT, Strain/Sex: SPRAGUE-DAWLEY/FEMALE, Target Tissue: Type of Lesion: MAMMARY GLAND: TUMOR, Dose [Carcinogen]: 12 MG IN 1 ML OLIVE OIL ONCE, Promoter: NONE USED","64%, 36%, 44%, not significant"
CC1=C(/C=C/C(C)=C/C=C/C(C)=C/C(=O)NCC(C)O)C(C)(C)CCC1 (configuration not stated),"tumour outcome (control, treated, inhibition, significance)","Carcinogen: N-BUTYL-N-(4-HYDROXYBUTYL)NITROSAMINE, 3817-11-6, Dose [Inhibitor]: 1.5 MMOL/KG DIET DAILY FOR 108 D STARTING ONE WK AFTER THE FINAL CARCINOGEN DOSE (STUDY DURATION: 171 D), Route [Inhibitor]: ORAL, Species: MOUSE, Strain/Sex: BDF/MALE, Target Tissue: Type of Lesion: URINARY BLADDER: TRANSITIONAL CELL CARCINOMA, Dose [Carcinogen]: 5 MG, 2/WK FOR 9 WK, Promoter: NONE USED","31/55 (56%), 20/55 (36%), 36%, p<0.05"
same,"tumour outcome (control, treated, inhibition, significance)","Carcinogen: N-BUTYL-N-(4-HYDROXYBUTYL)NITROSAMINE, 3817-11-6, Dose [Inhibitor]: 1.5 MMOL/KG/D IN DIET FOR 108 D STARTING 1 WK POST CARCINOGEN TREATMENT (STUDY DURATION: 171 D), Route [Inhibitor]: ORAL, Species: MOUSE, Strain/Sex: BDF/MALE, Target Tissue: Type of Lesion: URINARY BLADDER: TRANSITIONAL CELL CARCINOMA, Dose [Carcinogen]: 5 MG 2/WK FOR 9 WK, Promoter: NONE USED","31/55 (56%), 20/55 (36%), 36%, p<0.05"
same,"tumour outcome (control, treated, inhibition, significance)","Carcinogen: N-NITROSOBIS(2-OXOPROPYL)AMINE, 60599-38-4, Dose [Inhibitor]: 0.25 MMOL/KG OF DIET FOR 364 D STARTING 2 WK AFTER LAST CARCINOGEN DOSE (STUDY DURATION: 55 WK), Route [Inhibitor]: ORAL, Species: HAMSTER, Strain/Sex: SYRIAN/FEMALE, Target Tissue: Type of Lesion: LIVER: CARCINOMA, Dose [Carcinogen]: 20 MG/KG INJECTION GIVEN TWICE 1 WK APART, Promoter: NONE USED","5%, 19%, -280%, not calculated"
same,"tumour outcome (control, treated, inhibition, significance)","Carcinogen: N-NITROSOBIS(2-OXOPROPYL)AMINE, 60599-38-4, Dose [Inhibitor]: 0.25 MMOL/KG OF DIET FOR 364 D STARTING 2 WK AFTER LAST CARCINOGEN DOSE (STUDY DURATION: 55 WK), Route [Inhibitor]: ORAL, Species: HAMSTER, Strain/Sex: SYRIAN/FEMALE, Target Tissue: Type of Lesion: PANCREAS: CARCINOMA, Dose [Carcinogen]: 20 MG/KG INJECTION GIVEN TWICE 1 WK APART, Promoter: NONE USED","38%, 15%, 61%, not calculated"
same,"tumour outcome (control, treated, inhibition, significance)","Carcinogen: N-NITROSOBIS(2-OXOPROPYL)AMINE, 60599-38-4, Dose [Inhibitor]: 0.25 MMOL/KG OF DIET FOR 364 D STARTING 2 WK AFTER LAST CARCINOGEN DOSE (STUDY DURATION: 55 WK), Route [Inhibitor]: ORAL, Species: HAMSTER, Strain/Sex: SYRIAN/MALE, Target Tissue: Type of Lesion: LIVER: CARCINOMA, Dose [Carcinogen]: 20 MG/KG INJECTION GIVEN TWICE 1 WK APART, Promoter: NONE USED","7%, 32%, -357%, not calculated"
same,"tumour outcome (control, treated, inhibition, significance)","Carcinogen: N-NITROSOBIS(2-OXOPROPYL)AMINE, 60599-38-4, Dose [Inhibitor]: 0.25 MMOL/KG OF DIET FOR 364 D STARTING 2 WK AFTER LAST CARCINOGEN DOSE (STUDY DURATION: 55 WK), Route [Inhibitor]: ORAL, Species: HAMSTER, Strain/Sex: SYRIAN/MALE, Target Tissue: Type of Lesion: PANCREAS: CARCINOMA, Dose [Carcinogen]: 20 MG/KG INJECTION GIVEN TWICE 1 WK APART, Promoter: NONE USED","34%, 24%, 29%, not calculated"
same,"tumour outcome (control, treated, inhibition, significance)","Carcinogen: N-NITROSOBIS(2-OXOPROPYL)AMINE, 60599-38-4, Dose [Inhibitor]: 0.5 MMOL/KG DIET FOR 357 D STARTING 2 WK AFTER LAST CARCINOGEN DOSE AND INTERRUPTED BY A 1 WK REST PERIOD OF VEHICLE ONL, Route [Inhibitor]: ORAL, Species: HAMSTER, Strain/Sex: SYRIAN/FEMALE, Target Tissue: Type of Lesion: LIVER: HEPATOCELLULAR CARCINOMA, Dose [Carcinogen]: 20 MG/KG INJECTION GIVEN TWICE 1 WK APART, Promoter: NONE USED","5%, 12%, -140%, not calculated"
same,"tumour outcome (control, treated, inhibition, significance)","Carcinogen: N-NITROSOBIS(2-OXOPROPYL)AMINE, 60599-38-4, Dose [Inhibitor]: 0.5 MMOL/KG DIET FOR 357 D STARTING 2 WK AFTER LAST CARCINOGEN DOSE AND INTERRUPTED BY A 1 WK REST PERIOD OF VEHICLE ONL, Route [Inhibitor]: ORAL, Species: HAMSTER, Strain/Sex: SYRIAN/FEMALE, Target Tissue: Type of Lesion: PANCREAS: CARCINOMA, Dose [Carcinogen]: 20 MG/KG INJECTION GIVEN TWICE 1 WK APART, Promoter: NONE USED","38%, 25%, 34%, not calculated"
same,"tumour outcome (control, treated, inhibition, significance)","Carcinogen: N-NITROSOBIS(2-OXOPROPYL)AMINE, 60599-38-4, Dose [Inhibitor]: 0.5 MMOL/KG DIET FOR 357 D STARTING 2 WK AFTER LAST CARCINOGEN DOSE AND INTERRUPTED BY A 1 WK REST PERIOD OF VEHICLE ONL, Route [Inhibitor]: ORAL, Species: HAMSTER, Strain/Sex: SYRIAN/MALE, Target Tissue: Type of Lesion: LIVER: HEPATOCELLULAR CARCINOMA, Dose [Carcinogen]: 20 MG/KG INJECTION GIVEN TWICE 1 WK APART, Promoter: NONE USED","7%, 12%, -71%, not calculated"
same,"tumour outcome (control, treated, inhibition, significance)","Carcinogen: N-NITROSOBIS(2-OXOPROPYL)AMINE, 60599-38-4, Dose [Inhibitor]: 0.5 MMOL/KG DIET FOR 357 D STARTING 2 WK AFTER LAST CARCINOGEN DOSE AND INTERRUPTED BY A 1 WK REST PERIOD OF VEHICLE ONL, Route [Inhibitor]: ORAL, Species: HAMSTER, Strain/Sex: SYRIAN/MALE, Target Tissue: Type of Lesion: PANCREAS: CARCINOMA, Dose [Carcinogen]: 20 MG/KG INJECTION GIVEN TWICE 1 WK APART, Promoter: NONE USED","34%, 29%, 15%, not calculated"
